In PubChem BioAssay AID1259411 (Chemical Carcinogenesis Research Information System (CCRIS), 2018):
The source made the active and inactive calls. The rule behind the calls is not given here.

System: rodent carcinogenicity bioassays, tumor incidence
Experiment: CCRIS carcinogenicity studies
Summary of the method: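 NCI-built, expert-reviewed records of carcinogenicity and related test outcomes (mutagenicity, tumor promotion/inhibition) compiled from published and report sources, historical span 1985-2011, not updated.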

Question: For `C=Cc1ccccc1`, which carcinogen call (Species: MOUSE, Strain/Sex: B6C3F1/FEMALE, Route: GAVAGE, Dose: 0, 150, 300 MG/KG FOR 78 WK (STUDY DURATION: 91 WK), Dose: 0, 150, 300 MG/KG FOR 78 WK (STUDY DURATION: 91 WK)) is on record?
Answer: inactive; negative

Question: What about the carcinogen call (Species: MOUSE, Strain/Sex: B6C3F1/MALE, Route: GAVAGE, Dose: 0, 150, 300 MG/KG FOR 78 WK (STUDY DURATION: 91 WK), Dose: 0, 150, 300 MG/KG FOR 78 WK (STUDY DURATION: 91 WK), Tumor Site: Type of Lesion: LUNG: ADENOMA, CARCINOMA) of the same compound?
Answer: equivocal

Question: And the carcinogen call (Species: MOUSE, Strain/Sex: C57BL/FEMALE, Route: GAVAGE, Dose: 0, 300 MG/KG BW IN 0.1 ML OLIVE OIL FOR LIFE BEGINNING POST WEANING ADMINISTERED TO OFFSPRING OF FEMALES GIVEN 1350 MG/K)?
Answer: inactive; negative

Question: What about the carcinogen call (Species: MOUSE, Strain/Sex: C57BL/FEMALE, Route: GAVAGE, Dose: 0, 300 MG/KG BW IN 0.1 ML OLIVE OIL ONCE ON DAY 17 OF PREGNANCY (STUDY DURATION: 120 WK)) of the same compound?
Answer: inactive; negative

Question: What about the carcinogen call (Species: MOUSE, Strain/Sex: C57BL/MALE, Route: GAVAGE, Dose: 0, 300 MG/KG BW IN 0.1 ML OLIVE OIL FOR LIFE BEGINNING POST WEANING ADMINISTERED TO OFFSPRING OF FEMALES GIVEN 300 MG/KG) of the same compound?
Answer: inactive; negative

Question: What about the carcinogen call (Species: MOUSE, Strain/Sex: CD-1/FEMALE, Route: INHALATION, Dose: 0, 20, 40, 80, 160 PPM IN CHAMBER FOR 6 HR/D 5D/WK FOR 98 WK (STUDY DURATION: 98 WK), Dose: 0, 20, 40, 80, 160 PPM IN CHAMBER FOR 6 HR/D 5D/WK FOR 98 WK (STUDY DURATION: 98 WK), Tumor Site: Type of Lesion: LUNG: BRONCHIOLOALVEOLAR ADENOMA, BRONCHIOLOALVEOLAR CARCINOMA) of the same compound?
Answer: active; positive

Question: And the carcinogen call (Species: MOUSE, Strain/Sex: CD-1/MALE, Route: INHALATION, Dose: 0, 20, 40, 80, 160 PPM IN CHAMBER FOR 6 HR/D 5D/WK FOR 104 WK (STUDY DURATION: 104 WK), Dose: 0, 20, 40, 80, 160 PPM IN CHAMBER FOR 6 HR/D 5D/WK FOR 104 WK (STUDY DURATION: 104 WK), Tumor Site: Type of Lesion: LUNG: BRONCHIOLOALVEOLAR ADENOMA)?
Answer: active; positive

Question: What about the carcinogen call (Species: MOUSE, Strain/Sex: O20/FEMALE, Route: GAVAGE, Dose: 0, 1350 MG/KG BW IN 0.1 ML OLIVE OIL FOR 16 WK POST WEANING ADMINISTERED TO OFFSPRING OF FEMALES GIVEN 1350 MG/KG ON DAY, Tumor Site: Type of Lesion: LUNG: ADENOMA OR CARCINOMA) of the same compound?
Answer: active; positive

Question: What about the carcinogen call (Species: MOUSE, Strain/Sex: O20/FEMALE, Route: GAVAGE, Dose: 0, 1350 MG/KG BW IN 0.1 ML OLIVE OIL ONCE ON DAY 17 OF PREGNANCY (STUDY DURATION: 120 WK)) of the same compound?
Answer: inactive; negative

Question: And the carcinogen call (Species: MOUSE, Strain/Sex: O20/MALE,FEMALE, Route: GAVAGE, Tumor Site: Type of Lesion: LUNG: ADENOMA, ADENOCARCINOMA)?
Answer: active; positive

Question: And the carcinogen call (Species: MOUSE, Strain/Sex: O20/MALE, Route: GAVAGE, Dose: 0, 1350 MG/KG BW IN 0.1 ML OLIVE OIL FOR 16 WK POST WEANING ADMINISTERED TO OFFSPRING OF FEMALES GIVEN 1350 MG/KG ON DAY, Tumor Site: Type of Lesion: LUNG: ADENOMA OR CARCINOMA)?
Answer: active; positive

Question: And the carcinogen call (Species: MOUSE, Strain/Sex: STRAIN-A/FEMALE, Route: INTRAPERITONEAL, Dose: 0, 10 UMOL IN 0.1 ML OLIVE OIL 3/WK FOR 20 DOSES (TOTAL DOSE: 200 UMOL) (STUDY DURATION: 27 WK))?
Answer: inactive; negative

Question: What about the carcinogen call (Species: RAT, Strain/Sex: BDIV/FEMALE, Route: GAVAGE, Dose: 0, 500 MG/KG BW IN 0.3 ML OLIVE OIL FOR LIFE BEGINNING POST WEANING ADMINISTERED TO OFFSPRING OF FEMALES GIVEN 1350 MG/K) of the same compound?
Answer: inactive; negative

Question: And the carcinogen call (Species: RAT, Strain/Sex: BDIV/FEMALE, Route: GAVAGE, Dose: 0, 1350 MG/KG BW IN 0.3 ML OLIVE OIL ONCE ON DAY 17 OF PREGNANCY (STUDY DURATION: 120 WK))?
Answer: inactive; negative

Question: What about the carcinogen call (Species: RAT, Strain/Sex: BDIV/MALE, Route: GAVAGE, Dose: 0, 500 MG/KG BW IN 0.3 ML OLIVE OIL FOR LIFE BEGINNING POST WEANING ADMINISTERED TO OFFSPRING OF FEMALES GIVEN 1350 MG/K) of the same compound?
Answer: inactive; negative

Question: What about the carcinogen call (Species: RAT, Strain/Sex: F344/FEMALE, Route: GAVAGE, Dose: 0, 500 MG/KG FOR 103 WK (STUDY DURATION: 104 WK), 1,000, 2,000 MG/KG FOR 78 WK (STUDY DURATION: 105 WK), Dose: 0, 500 MG/KG FOR 103 WK (STUDY DURATION: 104 WK), 1,000, 2,000 MG/KG FOR 78 WK (STUDY DURATION: 105 WK)) of the same compound?
Answer: inactive; negative

Question: And the carcinogen call (Species: RAT, Strain/Sex: F344/MALE, Route: GAVAGE, Dose: 0, 500 MG/KG FOR 103 WK (STUDY DURATION: 104 WK), 1,000, 2,000 MG/KG FOR 78 WK (STUDY DURATION: 105 WK), Dose: 0, 500 MG/KG FOR 103 WK (STUDY DURATION: 104 WK), 1,000, 2,000 MG/KG FOR 78 WK (STUDY DURATION: 105 WK))?
Answer: inactive; negative

Question: What about the carcinogen call (Species: RAT, Strain/Sex: SPRAGUE-DAWLEY/FEMALE, Route: GAVAGE, Dose: 0, 50, 250 MG/KG BW IN OLIVE OIL 1/D 4-5 D/WK FOR 52 WK (STUDY DURATION: LIFETIME), Dose: 0, 50, 250 MG/KG BW IN OLIVE OIL 1/D 4-5 D/WK FOR 52 WK (STUDY DURATION: LIFETIME), Tumor Site: Type of Lesion: [BRAIN WAS ONLY SITE EVALUATED]) of the same compound?
Answer: inactive; negative

Question: And the carcinogen call (Species: RAT, Strain/Sex: SPRAGUE-DAWLEY/FEMALE, Route: INHALATION, Dose: 0, 25, 50, 100, 200, 300 PPM 4 HR/D, 5 D/WK FOR 52 WK (STUDY DURATION: LIFESPAN), Dose: 0, 25, 50, 100, 200, 300 PPM 4 HR/D, 5 D/WK FOR 52 WK (STUDY DURATION: LIFESPAN), Tumor Site: Type of Lesion: MAMMARY GLAND: BENIGN TUMOR, MALIGNANT TUMOR)?
Answer: active; positive

Question: And the carcinogen call (Species: RAT, Strain/Sex: SPRAGUE-DAWLEY/FEMALE, Route: INHALATION, Dose: 0, 25, 50, 100, 200, 300 PPM IN AIR 4 HR/D 5 D/WK FOR 52 WK (STUDY DURATION: LIFETIME), Dose: 0, 25, 50, 100, 200, 300 PPM IN AIR 4 HR/D 5 D/WK FOR 52 WK (STUDY DURATION: LIFETIME), Tumor Site: Type of Lesion: [BRAIN WAS ONLY SITE EVALUATED])?
Answer: inactive; negative

Question: And the carcinogen call (Species: RAT, Strain/Sex: SPRAGUE-DAWLEY/FEMALE, Route: INTRAGASTRIC, Dose: 0, 50, 250 MG/KG IN OLIVE OIL 1/D, 4-5 D/WK FOR 52 WK (STUDY DURATION: LIFESPAN), Dose: 0, 50, 250 MG/KG IN OLIVE OIL 1/D, 4-5 D/WK FOR 52 WK (STUDY DURATION: LIFESPAN))?
Answer: inactive; negative

Question: And the carcinogen call (Species: RAT, Strain/Sex: SPRAGUE-DAWLEY/FEMALE, Route: INTRAPERITONEAL, Dose: 0, 50 MG/RAT IN OLIVE OIL, 1/2 MO FOR 8 MO (STUDY DURATION: LIFESPAN))?
Answer: inactive; negative

Question: What about the carcinogen call (Species: RAT, Strain/Sex: SPRAGUE-DAWLEY/FEMALE, Route: SUBCUTANEOUS, Dose: 0, 50 MG/RAT IN OLIVE OIL ONCE (STUDY DURATION: LIFESPAN)) of the same compound?
Answer: inactive; negative

Question: And the carcinogen call (Species: RAT, Strain/Sex: SPRAGUE-DAWLEY/MALE, Route: GAVAGE, Dose: 0, 50, 250 MG/KG BW IN OLIVE OIL 1/D 4-5 D/WK FOR 52 WK (STUDY DURATION: LIFETIME), Dose: 0, 50, 250 MG/KG BW IN OLIVE OIL 1/D 4-5 D/WK FOR 52 WK (STUDY DURATION: LIFETIME), Tumor Site: Type of Lesion: [BRAIN WAS ONLY SITE EVALUATED])?
Answer: inactive; negative

Question: And the carcinogen call (Species: RAT, Strain/Sex: SPRAGUE-DAWLEY/MALE, Route: INHALATION, Dose: 0, 25, 50, 100, 200, 300 PPM 4 HR/D, 5 D/WK FOR 52 WK (STUDY DURATION: LIFESPAN), Dose: 0, 25, 50, 100, 200, 300 PPM 4 HR/D, 5 D/WK FOR 52 WK (STUDY DURATION: LIFESPAN))?
Answer: inactive; negative

Question: What about the carcinogen call (Species: RAT, Strain/Sex: SPRAGUE-DAWLEY/MALE, Route: INHALATION, Dose: 0, 25, 50, 100, 200, 300 PPM IN AIR 4 HR/D 5 D/WK FOR 52 WK (STUDY DURATION: LIFETIME), Dose: 0, 25, 50, 100, 200, 300 PPM IN AIR 4 HR/D 5 D/WK FOR 52 WK (STUDY DURATION: LIFETIME), Tumor Site: Type of Lesion: [BRAIN WAS ONLY SITE EVALUATED]) of the same compound?
Answer: inactive; negative

Question: And the carcinogen call (Species: RAT, Strain/Sex: SPRAGUE-DAWLEY/MALE, Route: INTRAGASTRIC, Dose: 0, 50, 250 MG/KG IN OLIVE OIL 1/D, 4-5 D/WK FOR 52 WK (STUDY DURATION: LIFESPAN), Dose: 0, 50, 250 MG/KG IN OLIVE OIL 1/D, 4-5 D/WK FOR 52 WK (STUDY DURATION: LIFESPAN))?
Answer: inactive; negative

Question: And the carcinogen call (Species: RAT, Strain/Sex: SPRAGUE-DAWLEY/MALE, Route: INTRAPERITONEAL, Dose: 0, 50 MG/RAT IN OLIVE OIL, 1/2 MO FOR 8 MO (STUDY DURATION: LIFESPAN))?
Answer: inactive; negative

Question: What about the carcinogen call (Species: RAT, Strain/Sex: SPRAGUE-DAWLEY/MALE, Route: SUBCUTANEOUS, Dose: 0, 50 MG/RAT IN OLIVE OIL ONCE (STUDY DURATION: LIFESPAN)) of the same compound?
Answer: inactive; negative

Question: What about the carcinogen call (Species: RAT, Strain/Sex: STRAIN-CD/FEMALE, Route: INHALATION, Dose: 0, 50, 200, 500, 1000 PPM 6HR/D 5 D/WK FOR 104 WK (STUDY DURATION:107 WK), Dose: 0, 50, 200, 500, 1000 PPM 6HR/D 5 D/WK FOR 104 WK (STUDY DURATION:107 WK)) of the same compound?
Answer: inactive; negative

Question: And the carcinogen call (Species: RAT, Strain/Sex: STRAIN-CD/MALE, Route: INHALATION, Dose: 0, 50, 200, 500, 1000 PPM 6 HR/D 5 D/WK FOR 104 WK (STUDY DURATION:107 WK), Dose: 0, 50, 200, 500, 1000 PPM 6 HR/D 5 D/WK FOR 104 WK (STUDY DURATION:107 WK))?
Answer: inactive; negative
